# Columns and labels:
# [1] = Nanoparticle characterization: hydrodynamic diameter, zeta potential, stability; format: physicochemical; conditions: CR5 with peptide, 30:1 polymer:peptide weight ratio
# Description: (§1) PBAE polymer and peptide were separately dissolved in pH 7.4 150-mM PBS and combined at a 1:1 volume ratio. Final concentrations of the components were 6-ng/μL peptide and 180-ng/μL polymer (30:1 polymer: peptide weight ratio). Polymer and peptide nanoparticles were allowed to self-assemble at room temperature for 10 minutes. For characterization, nanoparticles were diluted 1:5 in PBS. Hydrodynamic diameter and zeta potential were measured using a Malvern Zetasizer Pro (Malvern Panalytical, Malvern, UK). Stability was assessed by incubating nanoparticles at RT up to 45 minutes then measuring hydrodynamic diameter over 45 minutes. Nanoparticles were made immediately prior to each experiment.
# [2] = system: mouse ileal loops; test: CTx-induced fluid secretion in closed mouse ileal loops, nanoparticle-conjugated peptides; format: in vivo
# Description: All in vivo studies were performed on 8-12 week old C57B1/6N mice anesthetized with isofluorane and kept at 37° C. via heating lamps and rectal thermal probes.
# Effect on basal fluid transport and effect of Tenapanor. Mice operated on as above had 3-4 cm closed ileal loops inoculated with 150-μL PBS containing 400-nM nanoparticle-CP-2 or -N3SP-1Δ7. After 4 h, the loops were drained and inoculated with 150-μL PBS. 30 min later, the animals were sacrificed and loop weight/length determined. In parallel studies, Tenapanor (10 μM) was present in both incubation periods. Similar to the BODIPY-conjugated peptide studies, the effects of nanoparticle-CP-2 or N3SP-1Δ7 (4 μM) compared to PBS alone were determined on net fluid secretion produced by inoculation of 0.1-μg CTx. The nanoparticle-peptides plus 0.1-μg CTx in 150-μL PBS were inoculated in 3-4 cm long closed ileal loops. Additional controls included loops exposed only to 150-μL PBS and those only exposed to the CTx/PBS. 4 h later, the animals were sacrificed and loop weight/cm length was determined.
# [3] = system: NHE3; test: NHE3 activity in differentiated human enteroid monolayers after nanoparticle delivery of peptide; format: cell-based
# Description: (§2) NHE3 activity in PS120, Caco-2/BBe cells and human jejunal enteroids was determined fluorometrically (Photon Technologies Incorporated) using the intracellular pH sensitive dye BCECF, as reported (Levine et al., 1993; Sarker et al., 2008; Foulke-Abel et al., 2020). PS120/HA3-NHE3 cells were seeded on glass cover slips and studied at 70-80% confluency. Caco-2/BBe/HA3-NHE3 cells were grown to confluency on Transwell inserts (polyester, 0.4-μm pore size) and studied approximately 14-16 days pod. Human duodenal enteroid monolayers on Transwell inserts were differentiated for 5 days in the absence of Wnt3a, R-spondin, and noggin as described (Noel et al., 2017; Staab et al., 2020).
# (§3) Rates of Na^+/H^+ exchange were determined as Na^+-dependent alkalinization in the presence of 50-μM HOE-694 (to inhibit all other plasma membrane NHE isoforms) in HCO3-free solutions, with internal calibration using the nigericin/K+ method, as previously described (Sarker et al., 2008; Foulke-Abel et al., 2020). Kinetic analysis was used for PS120 cell studies (expressed as Vmax) and initial rates (ΔpH/min) for Caco-2/BBe cells, mouse intestine in vitro, and human enteroids. For in vitro mouse jejunal transport studies, NHE3 activity (in the presence of 50-μM HOE-694) was measured using SNARF-4F at 37° C. in a perfusion chamber using a two-photon microscope (Olympus FV1000) and 25× objective, as described (Murtazina et al., 2011).
# as §1, with “Nanoparticles were made immediately prior to each experiment.” left out
# [4] = system: NHE3; test: Effect of N-terminal truncations of N3SP-1 on NHE3 activity in human enteroids (BCECF-fluorometry); format: cell-based; conditions: human duodenal enteroids, Hill equation
# Description: as §2, §3
# Concentration dependent effects on NHE3 basal activity was determined using BCECF-fluorometry. Kinetic analysis was determined of extent of stimulation of basal NHE3 activity; analysis was by use of the Hill equation.
# Given the ability of N3SP-1Δ7 to prevent CTx-induced fluid secretion in vivo (FIG. 3E) and to stimulate basal NHE3 activity and prevent cAMP inhibition in human enteroids (FIG. 4C), further studies were carried out with human enteroids to determine the shortest N3SP-1-related peptide that would stimulate human NHE3. A series of N3SP-1 N-terminal truncations was synthesized and concentration-dependent stimulation of NHE3 activity determined using human jejunal enteroids.
substance,measurement,setting,value
N3SP-1 lacking first seven N-terminal amino acids: RPSTVEASVSYLLRESASAVCLDMQSLEQRR [Peptide N3SP-1Δ7],surface zeta potential (electrophoretic light scattering),[1],22.4±1.2 mV
same,nanoparticle diameter (DLS),[1]; aqueous,385±30 nm
same,reduction of cholera toxin induced secretion,"[2]; mouse, in vivo",approximately 42%
same,effect on CTx-induced fluid in ileal loops (loop weight/length),"[2]; nanoparticle-peptide 4 μM with 0.1-μg CTx, 4 hours",significantly less fluid
same,"NHE3 activity after FSK, % of same peptide without FSK","[3]; nanoparticles (250 nM) 18 h, FSK exposure, n=4",88.0%
same,increase of basal NHE3 activity compared to CP-2,"[3]; nanoparticles added apically (250 nM) for 18 h, n=4, p=0.043",36.0%
same,Stimulation of NHE3 Activity,"[4]; basal NHE3 activity, BCECF-fluorometry",YES (39%)
same,EC50,[4]; stimulation of basal NHE3 activity,156 nM

# From US20260217768A1, “NANOPARTICLE-NHE3 PEPTIDE TO TREAT DIARRHEA” (The Johns Hopkins University, priority 2023, published 2026)
